pIC50: −log10 of the molar value. Several values for one entry are separate records, joined by “and”; a condition that tells them apart may be missing. Identical values can stand only once. Counter-ions that a name gives are not always drawn. Like-named read-outs stand apart in the source and are kept apart here. Bounds are passed on as bounds.

The test system of data set [1] is AGE-BSA crosslinked to collagen. The data set can be described thus: Cross-link Breaking Assay (sandwich enzyme immunoassay). It is filed as biochemical. As to conditions: for Breaking Anti-AGE: anti-AGE antibody; for Breaking Anti-BSA: anti-BSA antibody. On the procedure: The present invention also involves a novel sandwich enzyme immunoassay used to ascertain the ability of test compounds to “break” or reverse already formed advanced glycosylation endproducts by detecting the breaking of AGE (Advanced glycosylation endproduct) moieties from AGE-crosslinked protein. This assay comprises: • a) incubation of AGE-modified bovine serum albumin (AGE BSA) on collagen-coated wells of microtiter plates for a period of 2–6 hours' at a temperature of 37° C.; • b) washing of the wells with PBS-Tween; • c) application of the test compounds to the washed wells of step b; • d) incubation of the test compounds applied to the washed wells for an additional 12–24 hours at a temperature of about 37° C.; and • e) detection of the AGE-breaking using an antibody raised against AGE-ribonuclease or cross-link breaking with an antibody against BSA.
In order to ascertain the ability of the compounds of the instant invention to “break” or reverse already formed advanced glycosylation endproducts, a novel sandwich enzyme immunoassay was developed which detects breaking of AGE (Advanced glycosylation endproduct) moieties from AGE-crosslinked protein. The assay utilizes collagen-coated 96 well microtiter plates that are obtained commercially. […] Following an incubation period of 16 hours (37° C.) cross-link-breaking is detected using an antibody raised against AGE-ribonuclease or with an antibody against BSA. […] Details of the assay are as follows:
Methods Preparation of Solutions and Buffers • 1. AGE-BSA stock solutions were prepared as follows. Sodium phosphate buffer (0.4 M) was prepared by dissolving 6 grams of monobasic sodium phosphate in 100 ml of distilled water, 7 grams of dibasic sodium phosphate (0.4 M) in 100 ml of distilled water and adjusting the pH of the dibasic solution to 7.4 with the monobasic solution. Sodium azide (0.02 grams) was added per 100 ml volume to inhibit bacterial growth. The BSA solution was prepared as follows: 400 mg of Type V BSA (bovine serum albumin) was added for each ml of sodium phosphate buffer (above). A 400 mM glucose solution was prepared by dissolving 7.2 grams of dextrose in 100 ml of sodium phosphate buffer (above). The BSA and glucose solutions were mixed 1:1 and incubated at 37° C. for 12 weeks. The pH of the incubation mixture was monitored weekly and adjusted to pH 7.4 if necessary. After 12 weeks, the AGE-BSA solution was dialyzed against PBS for 48 hours with four buffer changes, each at a 1:500 ratio of solution to dialysis buffer. Protein concentration was determined by the micro-Lowry method. The AGE-BSA stock solution was aliquoted and stored at −20° C. […] Working solutions for crosslinking and breaking studies were prepared as follows. Test compounds were dissolved in PBS and the pH was adjusted to pH 7.4 if necessary. AGE-BSA stock solution was diluted in PBS to measure maximum crosslinking and in the inhibitor solution for testing inhibitory activity of compounds. The concentration of AGE-BSA necessary to achieve the optimum sensitivity was determined by initial titration of each lot of AGE-BSA. • 3. Wash buffer (“PBS-Tween”) was, prepared as follows. PBS was prepared by dissolving the following salts in one liter of distilled water: NaCl, 8 grams; KC1, 0.2 gram, KH2PO4. […] Tween-20 was added to a final concentration of 0.05% (vol/vol). • 4. Substrates for detection of secondary antibody binding were prepared by diluting the HRP substrate buffer 1:10 in distilled water and mixing with ABTS chromogen 1:50 just prior to use. Assay Procedures • 1. Biocoat plates were blocked with 300 μl of “Superbloc”. Plates were blocked for one hour at room temperature and were washed with PBS-Tween three times with the Dynatech platewasher before addition of test reagents. • 2. Each experiment was set up in the following manner. The first three wells of the Biocoat plate were used for the reagent blank.

In data set [2] the test system is cross-linking of glycated bovine serum albumin (AGE-BSA) to rat tail tendon collagen. As to the kind of experiment: Cross-linking Inhibition Assay. Conditions: for pIC50: inhibition of AGE-BSA cross-linking to collagen-coated plate.
Procedure: The following method was used to evaluate the ability of the compounds of the present invention to inhibit the cross-linking of glycated bovine serum albumin (AGE-BSA) to the rat tail tendon collagen-coated 96-well plate.
The blocking solution was removed from the wells by, washing the plate twice with PBS-'Tween 20 solution (0.05% Tween 20) using a NUNq-multiprobe or Dynatech ELISA-plate washer. Cross-linking of AGE-BSA (1 to 10 mg per well depending on the batch of AGE-BSA) to rat tail tendon collagen coated plate was performed with and without the testing ‘compound dissolved in PBS buffer at pH 7.4 at the desired concentrations by the, addition of 50 μl each of the AGE-BSA diluted in PBS or in the solution of test compound at 37° C. for 4 hours. Unbrowned BSA in PBS buffer with or without testing compound were added to the separate wells as the blanks. The un-cross-linked AGE-BSA was then removed by washing the wells three times with PBS-Tween buffer. The amount of AGE-BSA cross-linked to the tail tendon collagen-coated plate was then quantitated using a polyclonal antibody raised against AGE-RNase. After a one-hour incubation period, AGE antibody was removed by washing 4 times with PBS-Tween.
The bound AGE antibody was then detected with the addition of horseradish peroxidase-conjugated secondary antibody—goat anti-rabbit immunoglobulin and incubation for 30 minutes. […] The reaction was allowed for an additional 15 minutes and the absorbance was read at 410 nm in a Dynatech plate reader.
Setting [3] is: detection with anti-BSA antibody, read-out: IC50 (mM) Anti-BSA.
The mark [4] stands for this setting: detection with anti-AGE antibody, read-out: IC50 (mM) Anti-AGE.

What is called melting point is the temperature, or range, at which the solid turns liquid. Turning to `CC(C)(C)C(=O)C[n+]1ccsc1.[Br-]` [3-(2-tert-butyl-2-oxoethyl)-thiazolium bromide], the melting point lay in the range of 211 to 212 °C. In data set [1] (at 10 mM), the “Breaking Anti-AGE” value came to 28% and the “Breaking Anti-BSA” value is given as 37%.

As to `COc1cccc(C[n+]2csc(CCO)c2C)c1.[Cl-]` [3-(3′-methoxybenzyl)-4-methyl-5-(2′-hydroxyethyl)-thiazolium chloride], the melting point fell in the range of 135 to 136 °C. In addition, in data set [1] (at 10 mM), the “Breaking Anti-AGE” value was 4% and 14%; the “Breaking Anti-BSA” value was 19% and 25%.

As a reminder, the IC50 is the concentration at which inhibition is half-maximal. For the compound `C=Cc1sc[n+](CC(=O)c2ccccc2)c1C.[Br-]` [3-(2-phenyl-2-oxoethyl)-4-methyl-5-vinyl-thiazolium bromide], the melting point was 176 to 177 °C. Moreover, in data set [1] (at 1 mM), the “Breaking Anti-AGE” value is reported as 62% and the “Breaking Anti-BSA” value amounted to 82%. Moreover, in data set [1] (setting [3]), the IC50 was 0.1 mM.

Take `Cc1sc[n+](CC(=O)c2cc(C(C)(C)C)c(O)c(C(C)(C)C)c2)c1C` (as salt: bromide) [3-(2-(3′,5′-di-tert-butyl-4′-hydroxypheny].)-2-oxoethyl]-4,5-dimethyl-thiazolium bromide]: the melting point is 243 to 244 °C (dec.).

For the compound `Cc1c(CCO)sc[n+]1CC(=O)c1ccc2c(c1)OCCO2.[Br-]` [3 (2-(1′,4′-benzodioxan-6-yl)-2-oxoethyl]-4-methyl-5-(2′-hydroxyethyl)-thiazolium bromide], in data set [1] (at 3 mM), the “Breaking Anti-AGE” value was 11% and the “Breaking Anti-BSA” value is 21%. The “Relative Cross-link Inhibition (at 10 mM)” value in data set [2] amounted to 13%.

For the compound `C#CC[n+]1csc(C)c1C.[Br-]`, the melting point lay in the range of 198 to 200 °C.

On to `C#CC[n+]1ccsc1.[Br-]`, for which the melting point fell in the range of 64 to 66 °C.

By pIC50 is commonly meant the IC50 on a negative log10 scale, so that one unit is a factor of ten. A high value points to a small IC50. As for `Cc1sc[n+](CC(N)=O)c1C.[Br-]` [3-(2-amino-2-oxoethyl)-4,5-dimethyl-thiazolium bromide], in data set [1] (at 30 mM), the “Breaking Anti-AGE” value turned out to be 61% and the “Breaking Anti-BSA” value worked out at 16%. This compound gave a pIC50 in data set [2] of 2.00.

`CCOC(=O)c1ccc(NC(=O)C[n+]2csc(CCO)c2C)cc1.[Br-]` [3-(2-4′-carbethoxyanilino)-2-oxoethyl]-4-methyl-5-(2′-hydroxyethyl)-thiazolium bromide]: in data set [1] (at 10 mM), the “Breaking Anti-AGE” value turned out to be 48% and the “Breaking Anti-BSA” value was determined as 57%. For the same compound, the “Relative Cross-link Inhibition” value in data set [2] is recorded as 8.8% (1 mm).

`C#CC[n+]1csc(C)c1.[Br-]` displayed a melting point of 127 to 129 °C.

As to `Cc1c(CCO)sc[n+]1CC(=O)C(C)(C)C.[Br-]`, the melting point lay in the range of 186 to 187 °C.

For the compound `Cc1csc[n+]1CC(N)=O.[Br-]` [3-(2-amino-2-oxoethyl)-4-methyl-thiazolium bromide], in data set [1] (at 30 mM), the “Breaking Anti-AGE” value worked out at 89% and the “Breaking Anti-BSA” value came to 44%. For the same compound, the IC50 in data set [1] (setting [4]) came to 4.7 mM. Moreover, the IC50 in data set [1] (setting [3]) was found to be 38.6 mM. Also, in data set [2], the negative-log IC50 (pIC50) was 3.15.

In the case of `Nc1sc2ccccc2[n+]1N` [2,3-diaminio-benzothiazolium mesitylenesulfonate], in data set [1] (at 30 mM), the “Breaking Anti-AGE” value worked out at 87% and the “Breaking Anti-BSA” value is 54%. Also, the negative-log IC50 (pIC50) in data set [2] is 4.13.

With `Cc1c[n+](CC(=O)c2cc(C(C)(C)C)c(O)c(C(C)(C)C)c2)cs1` (as salt: bromide) [3-[2-(3′,5′-di-tert-butyl-4′-hydroxyphenyl)-2-oxoethyl)-5-methyl-thiazolium bromide], the melting point lay within 210 to 211 °C.

In turn, `C=Cc1sc[n+](CC(=O)c2cc(C(C)(C)C)c(O)c(C(C)(C)C)c2)c1C` (as salt: bromide) [3-(2-(3′,5′-tert-butyl-4′-hydroxyphenyl)-2-oxoethyl)-4-methyl-5-vinyl-thiazolium bromide] showed a melting point of 208 to 209 °C.

Turning to `COC(=O)c1ccc(NC(=O)C[n+]2csc(CCO)c2C)cc1O` (as salt: bromide) [3-(2-(4′-carbmethoxy-3′-hydroxyanilino)-2-oxoethyl]-4-methyl-5-(2′-hydroxyethyl)-thiazolium bromide], the melting point was in the range of 222 to 223 °C.

As to `C#CC[n+]1csc(CCO)c1C.[Br-]`, the melting point was 132 to 134 °C.

Turning to `COC(=O)C[n+]1csc2ccccc21.[Br-]` [3-(2-methoxy-2-oxoethyl)-benzothiazolium bromide], in data set [1] (at 30 mM), the “Breaking Anti-AGE” value is reported as 66%. The “Breaking Anti-BSA” value in data set [1] (at 30 mM) was 37%. The IC50 in data set [1] (setting [4]) turned out to be 1.2 mM; in data set [1] (setting [3]) it was 25.9 mM. The pIC50 in data set [2] is < 2.00.

For the compound `Cc1sc[n+](CC(=O)c2ccccc2)c1C.[Br-]` [3-(2-phenyl-2-oxoethyl)-4,5-dimethylthiazolium bromide], the “Breaking Anti-AGE” value in data set [1] (at 30 mM) is given as 56%/ND (30). Moreover, the “Relative Cross-link Inhibition (at 10 mM)” value in data set [2] came out at 37%.

Consider `Cn1cc[n+](CC(=O)c2cc(C(C)(C)C)c(O)c(C(C)(C)C)c2)c1` [1-methyl-3-(2-(3′,5′-di-tert-butyl-4′-hydroxyphenyl)-2-oxoethyl]-imidazolium bromide], for which, in data set [1] (at 10 mM), the “Breaking Anti-AGE” value came to 56% and the “Breaking Anti-BSA” value worked out at 38%. In data set [2], this compound had a negative logarithm of the IC50 (pIC50) of 2.35.

Consider `Cc1c[n+](CC(=O)c2cc(C(C)(C)C)c(O)c(C(C)(C)C)c2)cs1` [3-[2-(3′,5′-di-tert-butyl-4′-hydroxyphenyl)-2-oxoethyl)-5-methyl-thiazolium bromide], for which, in data set [1] (at 1 mM), the “Breaking Anti-AGE” value is 65% and the “Breaking Anti-BSA” value is 69%. In data set [1] (at 10 mM), the “Breaking Anti-AGE” value was 48% and the “Breaking Anti-BSA” value turned out to be 49%. Besides, in data set [1] (setting [4]), the IC50 came to 3 mM. Moreover, the pIC50 in data set [2] was 3.11.

Regarding `Cc1c(CCO)sc[n+]1CC(=O)c1ccccc1.[Br-]` [3-(2-phenyl-2-oxoethyl)-4-methyl-5-(2-hydroxyethyl)-thiazolium bromide], in data set [1] (at 30 mM), the “Breaking Anti-AGE” value is 67% and the “Breaking Anti-BSA” value was 13%. The IC50 in data set [1] (setting [4]) was 14.3 mM. For the same compound, the pIC50 in data set [2] was < 2.00.

Regarding `COC(=O)C[n+]1csc(C)c1.[Br-]` [3-(2-methoxy-2-oxoethyl)-5-methyl-thiazolium bromide], in data set [1] (at 30 mM), the “Breaking Anti-AGE” value is 72% and the “Breaking Anti-BSA” value amounted to 27%. The pIC50 in data set [2] was 2.49.

Turning to `COC(=O)C[n+]1ccsc1.[Br-]` [3-(2-Methoxy-2-oxoethyl)-thiazolium bromide], in data set [1] (at 30 mM), the “Breaking Anti-AGE” value was 38% and the “Breaking Anti-BSA” value came to 41%. For the same compound, the pIC50 in data set [2] is 3.60.

Regarding `Cc1c(CCO)sc[n+]1CC(=O)Nc1c(C(C)C)cccc1C(C)C.[Br-]` [3-(2-(2′,6′-Diisopropylanilino)-2-oxoethyl]-4-methyl-5-(2′-hydroxyethyl)-thiazolium bromide], in data set [1] (at 10 mM), the “Breaking Anti-AGE” value was 31% and the “Breaking Anti-BSA” value amounted to 48%. The “Relative Cross-link Inhibition (at 10 mM)” value in data set [2] was 19%.

Take `C#CC[n+]1cscc1C.[Br-]`: the melting point is 213 to 215 °C.

With `Cc1c(CCO)sc[n+]1Cc1ccccc1[N+](=O)[O-].[Br-]` [3-(2′-nitrobenzyl)-4-methyl-5-(2′-hydroxyethyl)-thiazolium bromide], the melting point lay in the range of 215 to 216 °C. Further, in data set [1] (at 10 mM), the “Breaking Anti-AGE” value is 11% and the “Breaking Anti-BSA” value is on record as 13%.

The record behind these values is US7022719B2, “Preventing and reversing the formation of advance glycosylation endproducts” (Alteon, Inc., priority 1995, dated 2006).
